Reference: PMC12040169 (PLOS Biology, 2025)

Assay: in vitro
Settings: human, hela cells, % viability

In order of rising viability at 28.5 h, 10 µM:
1. N=C1NC(=O)/C(=C\c2ccc(-c3ccc(Br)cc3)o2)S1 [CBK261409]  69.9%
2. CNC(=O)NC(=O)CN1CCC(CNc2ncccc2C#N)C1 (stereo not shown) [CBK306126]  77.4%
3. Cn1c(CNC(=O)c2ncoc2-c2cccs2)nc2ccccc21 [CBK283985]  78.6%
4. COCC(=O)N[C@H]1CCN2C(=O)c3cc(-c4ccc(F)cc4F)ccc3NC(=O)[C@@H]2C1 [CBK289561]  78.6%
5. CNC(=O)NC(=O)C(C)NCC1(c2cc(C)ccc2OC)CCOCC1 (stereo not shown) [CBK306318]  79.1%
6. CCOC(=O)N1CCN(Cc2ccc(OCc3cccnc3)cc2)CC1 [CBK305883]  79.1%
7. CCn1cnc2c1CC/C(=N\O)C2 [CBK010044]  80.6%
8. O[C@@H]1C[C@@H](c2nc(-c3ccccn3)no2)N(Cc2ccccc2)C1 [CBK288900]  81.3%
9. Cc1nc2c(c(=O)[nH]1)CN(C1CCCCC1)CC2 [CBK282416]  82.2%
10. COc1ccc(C(=O)Nc2nc3c(C)cccc3s2)c(OC)c1 [CBK287301]  82.6%
11. O=C(NC(=S)Nc1ccc(Br)cc1)c1ccccc1 [CBK092022]  83.5%
12. COc1ccc(CN2Cc3cccc(C(=O)O)c3C2=O)cc1OC [CBK291237]  83.5%
13. CCOC(=O)C1CSCCN1C(=O)c1ccc(-c2cnco2)cc1 (stereo not shown) [CBK304208]  84.9%
14. CCc1nnsc1C(=O)N1CCc2[nH]c3c(C)cccc3c2C1 [CBK281655]  86.2%
15. O=[N+]([O-])c1ccc(CSc2nnc(-c3cccs3)n2Cc2ccco2)cc1 [CBK267588]  86.6%
16. Cn1cccc1C(=O)N[C@H]1C[C@H]2C(=O)Nc3cc(Cl)ccc3C(=O)N2C1 [CBK289364]  86.7%
17. O=C(NC1CCCc2nc(N3CCC(CO)CC3)ncc21)C1CCCC1 (stereo not shown) [CBK307415]  87.4%
18. C1=CC2CC1CC2CN1CCC(N(CCc2ccccc2)Cc2ccccc2)CC1 (stereo not shown) [CBK264613G]  87.7%
19. COc1cccc(C(=O)Nc2ccccc2C(=O)Nc2cccc(C(=O)O)c2C)c1 [CBK265768]  88.1%
20. COc1cc(C2N(Cc3ccccc3)CCCN2Cc2ccccc2)c([N+](=O)[O-])cc1OC [CBK265224]  88.2%
21. NC(=O)c1sc2cc(C(F)(F)F)cnc2c1-c1cccs1 [CBK089891]  88.2%
22. Cc1ccc2c(c1)C(C[C@H]1CN(C(=O)C3CCCC3)CC[C@H]1CC(=O)O)=NCC2 [CBK289163]  88.5%
23. Cn1cc(-c2nccnc2OCCn2cccc2)cn1 [CBK107079]  88.6%
24. CCN(CC)C(=O)C1CCCN(C(=O)NCc2cc(C)on2)C1 (stereo not shown) [CBK156114]  89.5%
25. CC(NC(=O)c1cnc(-c2ccc(Cl)cc2)c(-c2ccc(O)cc2)c1)c1ccc(F)cc1 (stereo not shown) [CBK036751]  89.9%
26. Cc1cnn(CC(=O)NC(C)c2cc3cc(Cl)ccc3o2)c1 (stereo not shown) [CBK281447]  90.2%
27. COc1ccccc1CN(Cc1cccnc1)C(=O)CCn1cnnn1 [CBK307106]  90.4%
28. CCN1CCCC1CNC(=O)c1ccc(C)nc1NCCCn1ccnc1 (stereo not shown) [CBK076382]  90.7%
29. CC1(C)Cc2nc3nc(SCC(=O)c4ccc(Br)cc4)n(-c4ccccc4)c(=O)c3cc2CO1 [CBK263310]  91%
30. N#Cc1c(NC(=O)C(=O)NCc2cccnc2)sc2c1CCCC2 [CBK269485]  91%
31. Nc1ccc2c(O)c(C(=O)NCc3ccc(Cl)cc3)c(=O)[nH]c2c1 [CBK017557]  91.4%
32. COc1cc(OC)nc(CN2C(=O)C3(CC(=O)N(CCCN4C(=O)c5ccccc5C4=O)C3=O)c3cc(C)ccc32)n1 (stereo not shown) [CBK075992]  91.5%
33. CCNC(=S)N1CCN(CCNC=C2C(=O)CC(c3ccco3)CC2=O)CC1 (stereo not shown) [CBK264742]  91.7%
34. CCCN(CCC)C(=O)c1ccc(NC(=O)CC)cc1 [CBK304391]  91.8%
35. CCSc1nc(N)c(NC(=O)c2ccco2)c(=O)[nH]1 [CBK287613]  92.4%
36. CCOC(=O)[C@H]1CC[C@]2(CC1)CNC(=O)c1ccccc1O2 [CBK284893]  92.5%
37. FC(F)(F)c1ccc(Sc2cccs2)nc1 [CBK115236]  92.5%
38. FC(F)(F)Oc1ccc(-n2cc(-c3ccsc3)nn2)cc1 [CBK113096]  92.7%
39. O=c1[nH]nc(-c2cccs2)n1-c1ccncc1 [CBK283868]  93.2%
40. Cc1ccccc1-c1ccc(C(=O)N2CCN(C)CC2)c(NCc2cccnc2)n1 [CBK076125]  93.2%
41. O=C(Nc1ccccc1F)c1cc(Cl)sc1Cl [CBK085969]  93.3%
42. CCC(CN1CCOCC1)NC(=O)Cc1coc2cc(C)ccc12 (stereo not shown) [CBK282791]  93.3%
43. O=C(CN(C1CCCCC1)S(=O)(=O)c1ccc(Br)cc1)NCc1ccccn1 [CBK264846]  93.6%
44. Cc1cc(NC(=O)NC2CCOc3ccccc32)no1 (stereo not shown) [CBK304581]  93.8%
45. N#Cc1cccc(C(=O)NCCc2cn3c(n2)CCCC3)c1 [CBK305046]  93.9%
46. COc1ccnc(C(=O)N(Cc2ccccn2)CC2CCCO2)c1 (stereo not shown) [CBK307303]  94.1%
47. COc1cccc(-c2nc(C3CCN(CCc4ccc(F)cc4)CC3)n3ccccc23)c1 [CBK035373]  94.7%
48. Cc1cc(=O)c2ccccc2n1CC(=O)N1CCC2(CCOCC2)CC1 [CBK306869]  94.7%
49. Clc1cccc(-c2cncc(NCc3ccc4c(c3)OCO4)n2)c1 [CBK065323]  94.8%
50. CS(=O)(=O)c1ccc(Cn2c(=O)n(S(=O)(=O)c3ccccc3)c3ccccc32)cc1 [CBK106530]  95.1%
51. O=C(Nc1ccc(N2CCOCC2)c(Cl)c1)c1cccc(-n2cnnc2)c1 [CBK269853]  95.6%
52. Nc1ccn([C@H]2C[C@@H](O)[C@@H](CO)O2)c(=O)n1 [CBK201274]  96.2%
53. CCC(C)(C)c1ccc(S(=O)(=O)N2CCN(Cc3cc(C(=O)OC)n(C)c3)CC2)cc1 [CBK062831]  96.3%
54. O=C(Cn1cccc(C(=O)Nc2ccc(F)cc2)c1=O)NC1(c2ccccc2)CCCC1 [CBK286057]  96.3%
55. COc1ccc([C@@]23CC[C@@H](NC(=O)c4cc(F)c(Cl)cc4Cl)C[C@@H]2N(C)CC3)cc1OC [CBK074264T]  97.4%
56. O=C(Nc1ccc(CCO)cc1)c1cnc(-c2ccc(Cl)cc2)c(-c2ccco2)c1 [CBK037457]  97.5%
57. Cc1nn2c(c1-c1ccno1)CCCCC2 [CBK007505]  97.6%
58. O=C1c2ccccc2C(=O)N1CSc1nnc2c3ccccc3n(CCc3ccccc3)c2n1 [CBK263891]  97.7%
59. O=C(CCC1CCCO1)N1CCCC(COc2ccc(F)cc2)C1 (stereo not shown) [CBK282031]  97.7%
60. O=C(Nc1ccc(S(=O)(=O)N2CCCCCC2)cc1)c1nc2ncccn2n1 [CBK266155]  97.7%
61. O=C(O)c1ccccc1C(=O)N1CCN(Cc2ccc3c(c2)OCO3)CC1 [CBK074751]  97.9%
62. Cn1cncc1CN1CCCC(c2cc3cccnc3[nH]2)C1 (stereo not shown) [CBK284948]  98.4%
63. O=C(CSc1nc(Nc2ccccc2)nc(N2CCOCC2)n1)N1CCN(c2ccccc2)CC1 [CBK269078]  98.5%
64. Nn1cnn2c(SCC(=O)Nc3ccc(Cl)cc3)nnc12 [CBK025688]  99%
65. O=C(/C=C/c1cn(C2OC(CO)C(O)C2O)c(=O)[nH]c1=O)NCCCCCCNC(=O)C(F)(F)F (stereo not shown) [CBK201231]  99.1%
66. Cc1nn(C)c(Cl)c1S(=O)(=O)Nc1cc(NC2CCNC2)c2occc2c1 (stereo not shown) [CBK067807C]  99.3%
67. Cc1cnc(CNC(=O)C2(c3ccccc3)CCCC2)cn1 [CBK149531]  101%
68. O=C(NCc1cccnc1)c1ccc(-c2cccc(Cl)c2Cl)o1 [CBK112211]  102%
69. S=c1[nH]cnc2c1[nH]c1ccc(Br)cc12 [CBK288487]  102%
70. COc1ccc(Cl)cc1N/C=C(/C#N)c1nc(-c2cc3cc([N+](=O)[O-])ccc3oc2=O)cs1 [CBK263014]  102%
71. O=C(COc1cccc2ccccc12)N/N=C/c1ccco1 [CBK086853]  103%
72. Cc1cc(C)nc(NS(=O)(=O)c2ccc(Nc3ccc4nonc4c3[N+](=O)[O-])cc2)n1 [CBK261444]  103%
73. Cc1cc2ncc3c(n2n1)CC1CCC3N1Cc1ccccc1 (stereo not shown) [CBK282266]  104%
74. Cc1cc(NC(=O)NC2CC3(CCN(C)CC3)Oc3ccccc32)no1 (stereo not shown) [CBK305059]  104%
75. CC(C)[C@@H](CO)Nc1nccnc1-c1ccc(CN)cc1 [CBK036640]  104%
76. O=C(O)c1ccc(N2C(=O)C3C4C=CC(C4=C(c4ccccc4)c4ccccc4)C3C2=O)cc1 (stereo not shown) [CBK263030]  104%
77. O=C(Oc1cccc(-c2cnc3ccccc3n2)c1)c1ccc(S(=O)(=O)N2CCCCC2)cc1 [CBK267785]  104%
78. O=C(C1CCCCC1)N1CCC(c2nnc(-c3ccsc3)o2)CC1 [CBK283380]  104%
79. CC1(C)COC(CCN2CCN(c3ccc(F)cc3)CC2)c2ccccc21 (stereo not shown) [CBK024080C]  105%
80. Cc1ccc(S(=O)(=O)N(CC(=O)O)c2ccc(Cl)cc2)cc1 [CBK263767]  106%
81. COc1ccc(OC)c(/N=C2\CC(=O)CC(C)(C)C2)c1 [CBK020541]  106%
82. O=C(NCCc1cc2ccccc2[nH]1)Nc1cccc2ccccc12 [CBK269246]  106%
83. c1ccc(N2CCN(c3nc4cc5c(cc4s3)OCO5)CC2)cc1 [CBK287495]  108%
84. Cc1cccc(CN2CCC[C@@H]3CN(C(=O)CC(C)C)C[C@@H]32)n1 [CBK285291]  108%
85. Cc1cccc(C(=O)Nc2c(C(=O)Nc3ccc(Br)cc3)cnn2-c2ccccc2)c1 [CBK264839]  113%
86. Cc1ccc(C(=O)NCc2cccnc2N(C)C2CCCCC2)cn1 [CBK306514]  116%
87. COCCCn1c(CCC(=O)O)ccc1-c1cccs1 [CBK267942]  121%

Same assay, conditions: human, hela cells, % viability, bulk resorufin, single well

With `O=C(NO)Nc1ccc(Cl)c(Cl)c1` [CBK016929] the viability at 28.5 h, 10 µM was 96.3%.
